# Laboratory results published in patent US9995734B2, “Human T cell line assay for evaluating the immunologic identity of glatiramer acetate preparations” (Mylan Inc., priority 2013, dated 2018).
# Where “and” joins values, the source holds several entries; their conditions need not be identical. Equal values may be shown once.
# Key:
# Format in all cases: cell-based, human
# Donor 3 GMA T-Cell Lines = assay: ATP proliferation assay (CellTiter Glo), Donor 3 GMA T-cell lines, incl. reactivity to non-canonical GA peptides
# Donor 4 COP T-Cell Lines = assay: ATP proliferation assay (CellTiter Glo), Donor 4 COP T-cell lines, incl. reactivity to non-canonical GA peptides; settings: for Non-Canonical Peptide Non-Reactivity: proliferation <2 times no antigen control; for Proliferation (luminescent ATP assay), Mean: T-cell line 205-1F4, Day 71, autologous B-LCL
# Donor 3 COP T-Cell Lines = assay: ATP proliferation assay (CellTiter Glo), Donor 3 COP T-cell lines, incl. reactivity to non-canonical GA peptides; settings: for Non-Canonical Peptide Non-Reactivity: proliferation <2 times no antigen control
substance,measurement,setting,value
poly (Glu-Ala-Tyr; 6:3:1) [GAT 631],"Proliferation (luminescent ATP assay), Mean","Donor 3 GMA T-Cell Lines; T-cell line 165-F10G, 30 μg/mL antigen, Day 50 of culturing, No Antigen Value 3752",3794 RLU
same,"Proliferation (luminescent ATP assay), Mean","Donor 3 GMA T-Cell Lines; T-cell line 165-H11G, 1 μg/mL antigen, Day 50 of culturing, No Antigen Value 1485",2413 RLU
same,"Proliferation (luminescent ATP assay), Mean","Donor 3 GMA T-Cell Lines; T-cell line 165-H11G, 1.25 μg/mL antigen, autologous B-LCL",43 RLU
same,"Proliferation (luminescent ATP assay), Mean","Donor 3 GMA T-Cell Lines; T-cell line 165-H11G, 2.5 μg/mL antigen, autologous B-LCL",290 RLU
same,"Proliferation (luminescent ATP assay), Mean","Donor 3 GMA T-Cell Lines; T-cell line 165-H11G, 3 μg/mL antigen, Day 50 of culturing, No Antigen Value 1485",2969 RLU
same,"Proliferation (luminescent ATP assay), Mean","Donor 3 GMA T-Cell Lines; T-cell line 165-H11G, 5 μg/mL antigen, autologous B-LCL",297 RLU
same,"Proliferation (luminescent ATP assay), Mean","Donor 3 GMA T-Cell Lines; T-cell line 165-H11G, 10 μg/mL antigen, Day 50 of culturing, No Antigen Value 1485",2995 RLU
same,"Proliferation (luminescent ATP assay), Mean","Donor 3 GMA T-Cell Lines; T-cell line 165-H11G, 10 μg/mL antigen, autologous B-LCL",305 RLU
same,"Proliferation (luminescent ATP assay), Mean","Donor 3 GMA T-Cell Lines; T-cell line 165-H11G, 30 μg/mL antigen, Day 50 of culturing, No Antigen Value 1485",3115 RLU
same,Non-Canonical Peptide Non-Reactivity,Donor 4 COP T-Cell Lines; 205-1B4,GAT 631
same,Non-Canonical Peptide Non-Reactivity,Donor 4 COP T-Cell Lines; 205-1C4,GAT 631
same,Non-Canonical Peptide Non-Reactivity,Donor 4 COP T-Cell Lines; 205-1F4,GAT 631
same,Non-Canonical Peptide Non-Reactivity,Donor 4 COP T-Cell Lines; 205-1H3,GAT 631
same,Non-Canonical Peptide Non-Reactivity,Donor 4 COP T-Cell Lines; 205-1H5,GAT 631
same,reactivity to non-canonical GA peptides,"Donor 4 COP T-Cell Lines; 205-1H7, after seven stimulations, 0, 1, 10, 30 μg/mL",not
same,Non-Canonical Peptide Non-Reactivity,Donor 4 COP T-Cell Lines; 205-1H7,GAT 631
same,Non-Canonical Peptide Non-Reactivity,Donor 4 COP T-Cell Lines; 205-1H11,GAT 631
same,Nonreactive T-Cell Line,"Donor 4 COP T-Cell Lines; Donor 4 COP lines, stimulation with the non-canonical GA peptide",205-1C4 (Donor 4) and 205-1F4 (Donor 4) and 205-1H3 (Donor 4) and 205-1H5 (Donor 4) and 205-1H7 (Donor 4) and 205-1H11 (Donor 4)
same,"Reactivity (proliferation), Mean","Donor 4 COP T-Cell Lines; T-cell line 205-1B4, 1 μg/mL antigen, No Antigen 830",843 RLU
same,"Reactivity (proliferation), Mean","Donor 4 COP T-Cell Lines; T-cell line 205-1B4, 3 μg/mL antigen, No Antigen 830",890 RLU
same,"Reactivity (proliferation), Mean","Donor 4 COP T-Cell Lines; T-cell line 205-1B4, 10 μg/mL antigen, No Antigen 830",845 RLU
same,"Reactivity (proliferation), Mean","Donor 4 COP T-Cell Lines; T-cell line 205-1B4, 30 μg/mL antigen, No Antigen 830",766 RLU
same,"Reactivity (proliferation), Mean","Donor 4 COP T-Cell Lines; T-cell line 205-1C4, 1 μg/mL antigen, No Antigen 4464",4856 RLU
same,"Reactivity (proliferation), Mean","Donor 4 COP T-Cell Lines; T-cell line 205-1C4, 3 μg/mL antigen, No Antigen 4464",5584 RLU
same,"Reactivity (proliferation), Mean","Donor 4 COP T-Cell Lines; T-cell line 205-1C4, 10 μg/mL antigen, No Antigen 4464",5666 RLU
same,"Reactivity (proliferation), Mean","Donor 4 COP T-Cell Lines; T-cell line 205-1C4, 30 μg/mL antigen, No Antigen 4464",5137 RLU
same,"Proliferation (luminescent ATP assay), Mean",Donor 4 COP T-Cell Lines; 1 μg/mL antigen,2424
same,"Proliferation (luminescent ATP assay), Mean",Donor 4 COP T-Cell Lines; 3 μg/mL antigen,2439
same,"Proliferation (luminescent ATP assay), Mean",Donor 4 COP T-Cell Lines; 10 μg/mL antigen,3035
same,"Reactivity (proliferation), Mean","Donor 4 COP T-Cell Lines; T-cell line 205-1H5, 1 μg/mL antigen, No Antigen 749",648 RLU
same,"Reactivity (proliferation), Mean","Donor 4 COP T-Cell Lines; T-cell line 205-1H5, 3 μg/mL antigen, No Antigen 749",696 RLU
same,"Reactivity (proliferation), Mean","Donor 4 COP T-Cell Lines; T-cell line 205-1H5, 10 μg/mL antigen, No Antigen 749",698 RLU
same,"Reactivity (proliferation), Mean","Donor 4 COP T-Cell Lines; T-cell line 205-1H5, 30 μg/mL antigen, No Antigen 749",669 RLU
same,Non-Canonical Peptide Non-Reactivity,Donor 3 COP T-Cell Lines; 165-B6C,GAT 631
same,Non-Canonical Peptide Non-Reactivity,Donor 3 COP T-Cell Lines; 165-C4C,GAT 631
same,Non-Canonical Peptide Non-Reactivity,Donor 3 COP T-Cell Lines; 165-C7C,GAT 631
same,proliferation response to non-canonical peptides,"Donor 3 COP T-Cell Lines; 165-E3C, separate experiment",did not react
same,Non-Canonical Peptide Non-Reactivity,Donor 3 COP T-Cell Lines; 165-F3C,GAT 631
same,Non-Canonical Peptide Non-Reactivity,Donor 3 COP T-Cell Lines; 165-F6C,GAT 631
same,Non-Canonical Peptide Non-Reactivity,Donor 3 COP T-Cell Lines; 165-U3C (so in the source),GAT 631
same,Nonreactive T-Cell Line,"Donor 3 COP T-Cell Lines; Donor 3 COP lines, stimulation with the non-canonical GA peptide",165-B6C (Donor 3) and 165-C4C (Donor 3) and 165-C7C (Donor 3) and 165-E3C (Donor 3) and 165-F3C (Donor 3) and 165-F6C (Donor 3)
same,"Proliferation (luminescent ATP assay), Mean","Donor 3 COP T-Cell Lines; T-cell line 165-C4C, 1 μg/mL antigen, Day 66 of culture, 0 μg/mL 1881",2489
same,"Proliferation (luminescent ATP assay), Mean","Donor 3 COP T-Cell Lines; T-cell line 165-C4C, 3 μg/mL antigen, Day 66 of culture, 0 μg/mL 1881",2687
same,"Proliferation (luminescent ATP assay), Mean","Donor 3 COP T-Cell Lines; T-cell line 165-C4C, 10 μg/mL antigen, Day 66 of culture, 0 μg/mL 1881",2682
same,"Proliferation (luminescent ATP assay), Mean","Donor 3 COP T-Cell Lines; T-cell line 165-C7C, 1.25 μg/mL antigen, autologous B-LCL",232 RLU
same,"Proliferation (luminescent ATP assay), Mean","Donor 3 COP T-Cell Lines; T-cell line 165-C7C, 2.5 μg/mL antigen, autologous B-LCL",204 RLU
same,"Proliferation (luminescent ATP assay), Mean","Donor 3 COP T-Cell Lines; T-cell line 165-C7C, 5 μg/mL antigen, autologous B-LCL",200 RLU
same,"Proliferation (luminescent ATP assay), Mean","Donor 3 COP T-Cell Lines; T-cell line 165-C7C, 10 μg/mL antigen, autologous B-LCL",184 RLU
same,"Proliferation (luminescent ATP assay), Mean","Donor 3 COP T-Cell Lines; T-cell line 165-F3C, 1 μg/mL antigen, Day 77 of culture, 0 μg/mL 1563",2389
same,"Proliferation (luminescent ATP assay), Mean","Donor 3 COP T-Cell Lines; T-cell line 165-F3C, 3 μg/mL antigen, Day 77 of culture, 0 μg/mL 1563",2249
same,"Proliferation (luminescent ATP assay), Mean","Donor 3 COP T-Cell Lines; T-cell line 165-F3C, 10 μg/mL antigen, Day 77 of culture, 0 μg/mL 1563",2391
same,"Proliferation (luminescent ATP assay), Mean","Donor 3 COP T-Cell Lines; T-cell line 165-F6C, 1.25 μg/mL antigen, Day 76 of culture, No Antigen value 517",516
same,"Proliferation (luminescent ATP assay), Mean","Donor 3 COP T-Cell Lines; T-cell line 165-F6C, 2.5 μg/mL antigen, Day 76 of culture, No Antigen value 517",479
same,"Proliferation (luminescent ATP assay), Mean","Donor 3 COP T-Cell Lines; T-cell line 165-F6C, 5 μg/mL antigen, Day 76 of culture, No Antigen value 517",463
same,"Proliferation (luminescent ATP assay), Mean","Donor 3 COP T-Cell Lines; T-cell line 165-F6C, 10 μg/mL antigen, Day 76 of culture, No Antigen value 517",449
